# Values joined by “and” are separate entries in the source; they are usually repeats but may differ in a detail not shown here. Identical values can stand only once. “Also recorded” adds a separate entry of the source. Like-named read-outs stand apart in the source and are kept apart here.
# Columns and labels:
# [1] = tested on: Huh-luc/neo-ET HCV genotype Ib replicon cells; type: cell-based; settings: selection with G418, 28 days
# Description: Cell culture and Assay setup: The reporter cell line Huh-luc/neo-ET was obtained and prepare as described previously. Cells were plated into 10 cm tissue culture dishes at a density of 3×10^5 cells per plate in culture medium containing 250 μg/ml G418 and incubated for 24 hours at 37° C. in an environment of 5% C02. Following the 24 hour incubation, dilutions of SPC3649, SPC4729, or telaprevir were prepared in cell culture medium (as above) with 750 μg/ml G418. Each of the dilutions was added to duplicate plates and the plates were incubated at 37° C. in an environment of 5% CO^2. Two additional plates received cell culture medium with 750 μg/ml G418 as a no-treatment control. […] The final concentration of SPC4729 was 10.0 μM. […] Following 28 days of passage, one set of dishes was stained with crystal violet and the other set of plates was utilized for expansion and establishment of resistant cell culture stocks.
# Huh-luc/neo-ET HCY genotype Ib replicon cells were cultured under selective pressure in the presence of 750 μg/mL G4 I8 with and without four independent fixed concentrations of SPC3649 anti-miR oligonucleotide, or telaprevir, or one concentration of scrambled oligonucleotide SPC4729 for 28 days in tissue culture plates. Duplicate tissue culture dishes were established and maintained for each culture condition. Medium was replaced bi-weekly during the 28 days of culture and the cells were split at the time of medium replenishment to maintain a confluent cell culture monolayer. Following four weeks in culture, cells were either fixed with methanol and stained with crystal violet or expanded for subsequent phenotypic and genotypic characterization.
# [2] = tested on: HCV genotype Ib replicon (I389luc-ubi-neo/NS3-3′/ET) in Huh-luc/neo-ET cells; type: cell-based
# Description: (§1) The anti-viral efficacy and cellular toxicity of non-transfected antimiR oligonucleotide in combination with approved and experimental anti-HCV therapeutics (e.g. NM283, 2′-C-methylcytidine, and/or VX-222) (or other NS5B polymerase inhibitors) was determined in the reporter cell line Huh-luc/neo-ET. This cell line harbors the persistently replicating I389luc-ubi-neo/NS3-3′/ET replicon containing the firefly luciferase gene-ubiquitin-neomycin phosphotransferase fusion protein and EMCV IRES driven NS3-5B HCV coding sequences containing the ET tissue culture adaptive mutations (E1202G, T1208I, and K1846T). Eight dilutions of non-transfected antimiR oligonucleotide (bracketing the calculated EC50) were evaluated in triplicate on duplicate sets of three plates with five dilutions of each of the control compounds (bracketing the calculated EC50). One set of plates was used for the determination of cellular toxicity and the other set of plates was used for the determination of anti-viral efficacy. The efficacy and toxicity results was quantified with firefly luciferase activity and XTT dye reduction, respectively, and the results of the assay is imported into the Prichard and Shipman MacSynergy II software program. The MacSynery II analysis includes calculation of the dose response of the two (or more) compounds when used alone followed by calculation of the expected additive level of antiviral inhibition or toxicity when the compounds are used together based on the individual dose response curves. The expected level of activity at each of the concentration data points was compared to the experimentally determined antiviral activity in the assay. The expected activity was subtracted from the realized activity, yielding a negative, zero or positive value. These values are plotted as a three dimensional representation of the data and the result is reported as a two-factor value, expressing the combined average above the expected level of activity (synergy volume) and the combined average below the expected level of activity (antagonism volume). Combination analysis was performed two or more times for each pair of test compound and control substance.
# (§2) The reporter cell line Huh-luc/neo-ET was obtained from Dr. Ralf Bartenschlager (Department of Molecular Virology, Hygiene Institute, University of Heidelberg, Germany) by ImQuest BioSciences. This cell line harbors the persistently replicating 1389luc-ubi-neo/NS3-3′IET replicon containing the firefly luciferase gene-ubiquitinneomycin phosphotransferase fusion protein and EMCV IRES driven NS3-5B HCV coding sequences containing the ET tissue culture adaptive mutations (E 1202G, T12081, and KI846T). A stock culture of the Huh-luc/neo-ET was expanded by culture in DMEM supplemented with 10% FBS, 2 mM glutamine, penicillin (100 IU/mL)/streptomycin (100 f·Ig/mL) and IX nonessential amino acids plus I mg/ml G418. Prior to plating, the cells were split 1:4 and cultured for two passages in the same medium plus 250 f·Ig/mL G418. The cells were treated with trypsin and enumerated by staining with trypan blue and seeded into 96-well tissue culture plates at a cell culture density 5.0×10^3 cells per well in a volume of 85 f·IL per well and incubated at […] in an environment of 5% CO2 for 24 hours. Six plates were established for the determination of combination efficacy (EC50) and cytotoxicity (TC50) for each of the compound combinations (three plates each for efficacy and toxicity). Following the 24 hour incubation, eight 2-fold serial dilutions of SPC3649 in cell culture medium without G418 were prepared (final in well high test concentration of 1.20 μM to 2.40 μM) and added to the cells and five 2-fold or 5-fold serial dilutions of control compounds in cell culture medium without G418 were prepared and added to the cells.
# Huh-luc/neo-ET cells = assay: Cellular toxicity by XTT dye reduction in Huh-luc/neo-ET cells
# Description: as §1
# as §2, with “Following the 24 hour incubation, eight 2-fold serial dilutions of SPC3649 in cell culture medium without G418 were prepared (final in well high test concentration of 1.20 μM to 2.40 μM) and added to the cells and five 2-fold or 5-fold serial dilutions of control compounds in cell culture medium without G418 were prepared and added to the cells.” left out
# [3] = tested on: HCV genotype 1b replicon NS5A Y93H; type: cell-based; settings: EC50 mutant / EC50 wild-type; mean of two experiments (individual values)
# Description: (§3) The in vitro antiviral of miravirsen was evaluated against wild-type HCV genotype 1b replicon and HCV genotype 1b replicons constructed to contain key amino acid substitutions in NS3 protease (A156T, R155K), NS5B polymerase (S282T, M423I) and NS5A protein (Y93H) in transient transfection assays utilizing Huh 7 cells. […] Huh 7 cells were transfected with either the wild-type or the mutant RNA constructs by electroporation. Luciferase activity was measured 72 hours after compound treatment and EC50 values determined from dose-response curves. Fold resistance was expressed as the ratio of the EC50 for mutant HCV replicon to the EC50 for wild-type HCV replicon.
# (§4) The in vitro antiviral of miravirsen was evaluated against wild-type HCV genotype 1b replicon and HCV replicons constructed to contain key amino acid substitutions in NS3 protease (A156T, R155K), NS5B polymerase (S282T, M423I) and NS5A protein (Y93H) in transient transfection assays. […] Huh 7 cells were transfected with either the wild type or the mutant RNA constructs by electroporation. Luciferase activity was measured 72 hours after compound treatment and EC50 values determined from dose-response curves. Fold resistance was expressed as the ratio of the EC50 for mutant HCV replicon to the EC50 for wild-type HCV replicon. Results are expressed as the mean of two individual experiments. In an initial set of experiments, the standard protocol was modified by adding compounds 24 hours after electroporation. […] In a third experiment cells were pretreated with miravirsen for 24 hours before electroporation with wild-type RNA constructs to determine if preincubation could result in increased miravirsen antiviral activity.
# [4] = tested on: HCV genotype 1b replicon NS5B S282T; type: cell-based; settings: EC50 mutant / EC50 wild-type, mean of two experiments (individual values)
# Description: as §3, §4
# [5] = tested on: HCV genotype 1b replicon NS3 A156T; type: cell-based; settings: EC50 mutant / EC50 wild-type; mean of two experiments (individual values)
# Description: as §3, §4
# [6] = tested on: HCV genotype 1b replicon NS3 R155K; type: cell-based; settings: EC50 mutant / EC50 wild-type; mean of two experiments (individual values)
# Description: as §3, §4
# [7] = tested on: HCV genotype 1b replicon NS5B M423I; type: cell-based; settings: EC50 mutant / EC50 wild-type; mean of two experiments (individual values)
# Description: as §3, §4
# [8] = in combination with ribavirin, 95% confidence level
# [9] = second drug in combination with miravirsen (SPC3649), 95% confidence interval, median (≧3 experiments) or individual values
# [10] = second drug in combination with miravirsen (SPC3649), overall
# [11] = second drug in combination with miravirsen (SPC3649), 95% confidence interval, median or individual values
compound,measurement,setting,value
5′-Ts.^ocsAs.^otsas.^mCs.^oTs.^oastsAs.^otsGs.^oas.^mCs.^oA.^o-3′ [SPC4729],rate of cell expansion,[1],did not decrease the rate of cell expansion
same,"Efficacy, Synergy vol",[2],0.00/−177.6 μM^2%
same,overall antiviral interaction,[2]; in combination with ribavirin,antagonistic
same,"Efficacy, Antag Vol","[2]; in combination with ribavirin, 95% confidence level, individual values",0.00/−177.6 μM^2%
same,impact of combination on in vitro cytotoxicity,Huh-luc/neo-ET cells; in combination with ribavirin,slight higher cytotoxicity
same,"Cytotoxicity, Antag Vol",Huh-luc/neo-ET cells; [8],−44.3 μM^2%
same,"Cytotoxicity, Synergy vol",Huh-luc/neo-ET cells; [8],0.00 μM^2%
"C[C@@]1(O)[C@H](O)[C@@H](CO)O[C@H]1n1ccc(N)nc1=O [2′-C-Methylcytidine, 2′-C-methylcytidine]","fold change in susceptibility, NS5A Y93H",[3],"1.0 (1.2, 0.8) fold"
same,"fold change in susceptibility, NS5B S282T",[4]; listed as 2′Me-C,42.8 fold and 45.8 fold
same,"fold change in susceptibility, NS5B S282T",[4]; listed as 2′Me—C,"45.8 (49.3, 42.3) fold"
same,"fold change in susceptibility, NS3 A156T",[5],"0.9 (1.0, 0.8) fold"
same,"fold change in susceptibility, NS3 R155K",[6],"0.8 (1.0, 0.6) fold"
same,"fold change in susceptibility, NS5B M423I",[7],"1.0 (0.9, 1.1) fold"
same,interaction in individual assay replicates,"[2]; in combination with SPC 3649, part of the replicates, listed as 2-methyl cytidine",positive interactions; also recorded: slightly antagonistic interaction
same,"Efficacy, Antagonism vol",[2]; [9],−27.6 μM^2%
same,"Efficacy, Synergy vol",[2]; [9],0 μM^2%
same,"Efficacy, Synergy vol","[2]; second drug in combination with miravirsen (SPC3649), 95% confidence interval, median (≧3 experiments) or individual values, listed as 2-methyl cytidine",0.0 μM^2%
same,Interaction,[2]; [10],Positive
same,Interaction,"[2]; second drug in combination with miravirsen (SPC3649), overall, listed as 2-methyl cytidine",positive interaction
same,"Cytotoxicity, Antagonism vol",Huh-luc/neo-ET cells; [11],−0.67 μM^2%
same,"Cytotoxicity, Synergy vol",Huh-luc/neo-ET cells; [11],0 μM^2%
"COC(=O)N[C@H](C(=O)N1CCC[C@H]1c1nc(-c2ccc(-c3ccc(-c4c[nH]c([C@@H]5CCCN5C(=O)[C@@H](NC(=O)OC)C(C)C)n4)cc3)cc2)c[nH]1)C(C)C [BMS 790052, Dimethyl (2S,2′S)-1,1′-((2S,2′S)-2,2′-(4,4′-(biphenyl-4,4′-diyl)bis(1H-imidazole-4,2-diyl))bis(pyrrolidine-2,1-diyl))bis(3-methyl-1-oxobutane-2,1-diyl)dicarbamate]","fold change in susceptibility, NS5A Y93H",[3],"29.9 fold and 29.9 (32.7, 27.0) fold"
same,"Efficacy, Antagonism vol",[2]; [9],−25.5 μM^2% and −0.1 μM^2% and 0/−24.5; μM^2% and 18.46/−0.06 μM^2%
same,Interaction,[2]; [10],Positive
same,"Cytotoxicity, Antagonism vol",Huh-luc/neo-ET cells; [11],−21.9 μM^2%
same,"Cytotoxicity, Synergy vol",Huh-luc/neo-ET cells; [11],0 μM^2%
"NC(=O)c1ncn([C@@H]2O[C@H](CO)[C@@H](O)[C@H]2O)n1 [Ribavirin, 1-[(2R,3R,4S,5R)-3,4-dihydroxy-5-(hydroxymethyl)oxolan-2-yl]-1H-1,2,4-triazole-3-carboxamide]",Interaction,[2],Positive
same,antagonism volume,[2],−292.6 μM^2%
same,interaction in individual assay replicates,[2],additive interaction; also recorded: highly antagonistic interaction
CC(C)(C)C#Cc1cc(N(C(=O)[C@H]2CC[C@H](C)CC2)[C@H]2CC[C@H](O)CC2)c(C(=O)O)s1 [VX-222],"fold change in susceptibility, NS5B M423I",[7],"4.4 fold and 4.4 (3.6, 5.2) fold"
same,"Efficacy, Antagonism vol",[2]; [9],−34.4 μM^2% and −4.27 μM^2% and 4.81/−34.44; μM^2% and 0.82/−4.27 μM^2%
same,Interaction,[2]; [10],Positive
same,"Cytotoxicity, Antagonism vol",Huh-luc/neo-ET cells; [11],−28.6 μM^2% and 0 μM^2%
same,"Cytotoxicity, Synergy vol",Huh-luc/neo-ET cells; [11],0 μM^2%
